These results are taken from patent publication US6967196B1, “Sulfonamide compounds and uses thereof” (Bristol-Myers Squibb Company, priority 1999, dated 2005).

Where a name gives a salt, the structure may show the parent alone. Some results are limits rather than exact numbers.

One test deals with amyloid β production in transfected H4 (human neuroglioma) cells stably expressing APP constructs. Kind of test: In vitro cell-based assay of inhibitors of amyloid β production (ELISA). Conditions: Homo sapiens, 16 h, transfected H4 cells expressing APP, approximately 16 hours incubation, amyloid β in medium by ELISA; read-out: ACTIVITY (IC50, inhibition of amyloid β production). Put shortly: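 Plate wt/variant APP cells; ≥6 h later swap to medium + compound (10-100 μM screen); incubate ~16 h; sample medium; Aβ ELISA with C-terminal capture / N-terminal detection Abs; quantify vs Aβ standard curve.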
A general note: In an ELISA, binding on a coated surface is turned into a signal by an enzyme label.
Consider `C[C@H](COC(=O)NCCCn1ncnn1)N(c1cc(Cl)ccc1F)S(=O)(=O)c1ccc(Cl)cc1` [Example 1295], for which the IC50 was ≤ 25 nM.
With `CC(C)C(CO)NC(=O)[C@@H](C)N(c1cc(Cl)ccc1F)S(=O)(=O)c1ccc(Cl)cc1` (some centres unmarked) [Example 1349], the IC50 was in the range of 100 to 500 nM.
Same read-out and setting: next, `CCOCCCNC(=O)[C@@H](C)N(c1cc(Cl)ccc1F)S(=O)(=O)c1ccc(Cl)cc1` [Example 1320]: 100 to 500 nM; `C[C@H](C(=O)NCCCCc1ccccc1)N(c1cc(Cl)ccc1F)S(=O)(=O)c1ccc(Cl)cc1` [Example 1324]: > 500 nM.
On the same count and under the same terms, next, `C[C@H](COC(=O)N1CCCC1)N(c1cc(Cl)ccc1CO)S(=O)(=O)c1ccc(Cl)cc1` [Example 1287]: ≤ 25 nM.

The test is the same for the next values; noted with them: Homo sapiens, 16 h, transfected H4 cells stably expressing APP; approx. 16 h incubation; amyloid β in medium by ELISA; read-out: ACTIVITY (IC50, inhibition of amyloid β production).
On to `CC(C)NC(=O)N(C)CCCOc1ccccc1CN(c1cc(F)ccc1F)S(=O)(=O)c1ccc(Cl)cc1` [Example 734, 4-chloro-N-(2,5-difluorophenyl)-N-(2-{3-[[(isopropylamino)carbonyl](methyl)amino]propoxy}benzyl)benzenesulfonamide], for which the IC50 lay in the range of 100 to 500 nM.
Same read-out and setting: next, `CC(c1ccccc1OCCN(C)C(=O)NC(C)(C)C)N(c1cc(F)ccc1F)S(=O)(=O)c1ccc(Cl)cc1` (centres unmarked) [Example 724, N-[1-(2-{2-[[(tert-butylamino)carbonyl](methyl)amino]ethoxy}phenyl)ethyl]-4-chloro-N-(2,5-difluorophenyl)benzenesulfonamide]: 100 to 500 nM; `CCN(CC)C(=O)N(CC)CCOc1ccccc1C(C)N(c1cc(F)ccc1F)S(=O)(=O)c1ccc(Cl)cc1` (centres unmarked) [Example 698, 4-chloro-N-[1-(2-{2-[[(diethylamino)carbonyl](ethyl)amino]ethoxy}phenyl)ethyl]-N-(2,5-difluorophenyl)benzenesulfonamide]: 100 to 500 nM.

Still in this test, the particulars now being: Homo sapiens, 16 h, transfected H4 cells stably expressing APP; approximately 16 hours incubation; amyloid β in medium by ELISA; Table B; read-out: ACTIVITY (IC50, inhibition of amyloid β production).
Turning to `C[C@H](c1ccc(F)cc1CN1CCS(=O)(=O)CC1)N(c1cc(F)ccc1F)S(=O)(=O)c1ccc(Cl)cc1` [Example 405], the IC50 was 50 to 100 nM.

The same test, now with this note: Homo sapiens, 16 h, transfected H4 cells stably expressing APP; approximately 16 hours incubation; amyloid β in medium by ELISA; read-out: ACTIVITY (IC50, inhibition of amyloid β production).
Turning to `O=S(=O)(c1ccc(Cl)cc1)N(Cc1ccccc1OCCCN1CCOCC1)c1ccccc1` [Example 859, 4-chloro-N-{2-[3-(4-morpholinyl)propoxy]benzyl}-N-phenylbenzenesulfonamide hydrochloride], the IC50 was 100 to 500 nM.
Still for that read-out and setting: the figure for `Cc1cccc(N(Cc2ccccc2OCCCN2CCCCC2)S(=O)(=O)c2ccc(Cl)cc2)c1` [Example 919, 4-chloro-N-(3-methylphenyl)-N-{2-[3-(1-piperidinyl)propoxy]benzyl}benzenesulfonamide hydrochloride] is > 500 nM; for `O=S(=O)(c1ccc(Cl)cc1)N(Cc1ccccc1OCCCN1CCCCC1)c1cc(Cl)cc(Cl)c1` [Example 816, 4-chloro-N-(3,5-dichlorophenyl)-N-{2-[3-(1-piperidinyl)propoxy]benzyl}benzenesulfonamide hydrochloride] it is 100 to 500 nM.

Staying with this test, now noted: Table B; transfected H4 cells stably expressing APP; approximately 16 hours incubation; amyloid β in medium by ELISA; read-out: ACTIVITY (inhibitory concentration IC50, inhibition of amyloid β production).
As to `CC(C)(C)[Si](C)(C)OCCCCCO` [Example 1, (S)-5-[[dimethyl(1,1-dimethylethyl)silyl]oxy]-1-pentanol], the IC50 was ≤ 25 nM.

Still in this test, the particulars now being: transfected H4 cells stably expressing APP constructs; approximately 16 hours incubation; amyloid β in medium by ELISA; read-out: ACTIVITY (IC50, inhibition of amyloid β production).
On to `CC(C)CS(=O)(=O)CCC[C@@H](C)N(c1cc(Cl)ccc1Cl)S(=O)(=O)c1ccc(Cl)cc1` [Example 1184], for which the IC50 lay within 25 to 50 nM.
The same measure, in the same setting: the figure for `CC(C)Oc1c(NCC[C@@H](C)N(c2cc(F)ccc2F)S(=O)(=O)c2ccc(Cl)cc2)c(=O)c1=O` [Example 1141, 4-chloro-N-(2,5-difluorophenyl)-N-[3-(2-isopropoxy-3,4-dioxo-1-cyclobutenyl)amine-1(R)-methylpropyl]benzenesulfonamide] is 100 to 500 nM; for `CC(C)C[C@H](NC(=O)CCCC[C@@H](C)N(c1cc(Cl)ccc1F)S(=O)(=O)c1ccc(Cl)cc1)C(=O)O` [Example 1263, (R)-4-Chloro-N-(5-chloro-2-fluorophenyl)-N-[6-[N-(S)-[1-(carboxy)-3-methylbutyl]amino]-1-methyl-6-oxohexyl]benzenesulfonamide] it is 25 to 50 nM; for `C[C@H](CCCN1CCCC(S(C)(=O)=O)C1)N(c1cc(Cl)ccc1Cl)S(=O)(=O)c1ccc(Cl)cc1` (stereo partly drawn) [Example 1108, 4-chloro-N-(2,5-dichlorophenyl)-N-[4-[(3-methylsulfonyl)-1-piperidinyl]-1(R)-methylbutyl]benzenesulfonamide] it is ≤ 25 nM.
As for `C[C@H](CCS(=O)(=O)CC(=O)O)N(c1cc(Cl)ccc1Cl)S(=O)(=O)c1ccc(Cl)cc1` [Example 1197, (6R)-6-[(2,5-dichlorophenyl)-[(4-chlorophenyl)sulfonyl]-amino]-3-thioheptanoic acid, 3,3-dioxide], the IC50 is > 500 nM.

Staying with this test, now noted: transfected H4 cells stably expressing APP; approx. 16 h incubation; amyloid β in medium by ELISA; read-out: ACTIVITY (IC50, inhibition of amyloid β production).
With “2-((1R)-1-{[(4-chlorophenyl)sulfonyl]-2,5-difluoroanilino}ethyl)-5-fluorobenzyl bis(2-methoxyethyl)carbamate [Example 760]”, the IC50 lay within 100 to 500 nM.
On the same count and under the same terms, next, “N-{3-[2-(1-{[(4-chlorophenyl)sulfonyl]-2,5-difluoroanilino}ethyl)phenoxy]propyl}-2,4,5-trifluoro-N-methylbenzamide [Example 710]”: 100 to 500 nM.
As to “4-chloro-N-{3-[2-(1-{[(4-chlorophenyl)sulfonyl]-2,5-difluoroanilino}ethyl)phenoxy]propyl}-N-methyl-2-nitrobenzamide [Example 636]”, the IC50 lay within 100 to 500 nM.
Still for that read-out and setting: next, `O=S(=O)(CCOc1ccccc1CN(c1cc(F)ccc1F)S(=O)(=O)c1ccc(Cl)cc1)C1CCCCC1` [Example 754, 4-chloro-N-{2-[2-(cyclohexylfulfonyl)ethoxy]benzyl}-N-(2,5-difluorophenyl)benzenesulfonamide]: 100 to 500 nM; “N-{3-[2-(1-{[(4-chlorophenyl)sulfonyl]-2,5-difluoroanilino}ethyl)phenoxy]propyl}-N,2-dimethylbenzamide [Example 693]”: 100 to 500 nM; “N-{2-[2-(1-{[(4-chlorophenyl)sulfonyl]-2,5-difluoroanilino}ethyl)phenoxy]ethyl}-N-ethylcyclopentanecarboxamide [Example 721]”: 100 to 500 nM.

Still in this test, the particulars now being: transfected H4 cells stably expressing APP; approximately 16 hours incubation; amyloid β in medium by ELISA; Table B; read-out: ACTIVITY (IC50, inhibition of amyloid β production).
With `O=S(=O)(c1ccc(Cl)cc1)N(Cc1ccccc1OCCCN1CC=CCC1)c1ccccc1` [Example 289, 4-Chloro-N-{2-[3-(3,6-dihydro-1(2H)pyridinyl)propoxy]benzyl}-N-phenylbenzenesulfonamide Hydrochloride], the IC50 is 25 to 50 nM.
Regarding `O=S(=O)(c1ccc(Cl)cc1)N(Cc1ccccc1OCCCN1CCC(O)CC1)c1ccccc1` [Example 298, 4-Chloro-N-{2-[3-(4-hydroxy-1-piperidinyl)propoxy]benzyl}-N-phenylbenzenesulfonamide Hydrochloride], the IC50 is 50 to 100 nM.
With `CC(C)(C)OC(=O)N1CCN(CCCOc2ccccc2CN(c2ccccc2)S(=O)(=O)c2ccc(Cl)cc2)CC1` [Example 288, Tert-butyl 4-{3-[2-({[(4 chlorophenyl)sulfonyl}anilino}methyl)phenoxy]propyl}-1-piperazinecarboxylate], the IC50 was in the range of 25 to 50 nM.
On the same count and under the same terms, next, `COC(=O)[C@H](CS(=O)(=O)CCCc1cc(F)ccc1[C@@H](C)N(c1cc(F)ccc1F)S(=O)(=O)c1ccc(Cl)cc1)NC(=O)OC(C)(C)C` [Example 486]: 100 to 500 nM.
Same read-out and setting: next, `CC(c1ccccc1OCCCN(C)C(=O)c1cccnc1)N(c1cc(F)ccc1F)S(=O)(=O)c1ccc(Cl)cc1` (centres unmarked) [Example 360, N-{3-[2-(1-{[(4-chlorophenyl)sulfonyl]-2,5-difluoroanilino}ethyl)phenoxy]propyl}-N-methylnicotinamide]: 50 to 100 nM; `O=S(=O)(c1ccc(Cl)cc1)N(Cc1ccccc1OCCCN1CCC(CO)CC1)c1ccccc1` [Example 311, 4-Chloro-N-(2-{3-[4-(hydroxymethyl)-1-piperidinyl]propoxy}benzyl)-N-phenylbenzenesulfonamide Hydrochloride]: 50 to 100 nM.
Same read-out and setting: next, `CNC(=O)COc1ccccc1C(C)N(c1cc(F)ccc1F)S(=O)(=O)c1ccc(Cl)cc1` (centres unmarked) [Example 381, [2-(1-{[(4-Chlorophenyl)sulfonyl]-2,5-difluoroanilino}ethyl)phenoxy]-N-methylacetamide]: 50 to 100 nM.

Staying with this test, now noted: transfected H4 cells stably expressing APP; approximately 16 hours incubation; amyloid β in medium by ELISA; read-out: ACTIVITY (IC50, inhibition of amyloid β production).
For “4-butoxy-N-{3-[2-({[(4-chlorophenyl)sulfonyl]-2,5-difluoroanilino}methyl)phenoxy]propyl}-N-methylbenzamide [Example 817]”, the IC50 was in the range of 100 to 500 nM.
For “2-[2-(1-{[(4-chlorophenyl)sulfonyl]-2,5-difluoroanilino}ethyl)phenoxy]-N-methylacetamide [Example 1064]”, the IC50 was > 500 nM.
For “(2R)-2-{[(4-chlorophenyl)sulfonyl]-2,5-difluoroanilino}propyl isonicotinate [Example 1057]”, the IC50 was > 500 nM.
On the same count and under the same terms, next, “N-{2-[2-(1-{[(4-chlorophenyl)sulfonyl]-2,5-difluoroanilino}ethyl)phenoxy]ethyl}-2-cyclohexyl-N-methylacetamide [Example 844]”: 100 to 500 nM.
